Common to all, as to test: DTP human tumour cell line panel, 48 h
Experiment [1] relates to NCI-H522 lung.
The subject of experiment [2] is CAKI-1 renal.
Experiment [3] deals with SNB-75 CNS.
The test system of experiment [4] is NCI/ADR-RES ovarian.
For experiment [5], the system named is OVCAR-3 ovarian.
Experiment [6] deals with UACC-257 melanoma.
For experiment [7], the system named is HCC-2998 colon.
Experiment [8] concerns SK-OV-3 ovarian.

This note sets out measurements from PubChem BioAssay (NCI).

Each structure is given as a SMILES string. Several values for one entry are separate records, joined by “and”; a condition that tells them apart may be missing. Equal entries are not always repeated.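 Tested at 5 concentrations; 48 h exposure; 96-well plates; endpoints linearly interpolated, else capped at highest concentration. GI50 = concentration required for 50% inhibition of growth. TGI is the concentration that stops growth completely.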 Some results are limits rather than exact numbers.

`O=C(Nc1ccccc1)Nc1ccccc1CNc1nc(Nc2ccc(OCCN3CCCC3)cc2)ncc1Cl`: the GI50 in experiment [1] is 5.3 µM; in experiment [2], 6.1 µM; in experiment [3], 1.2 µM; in experiment [4], 8.79 µM; in experiment [5], 1.09 µM; in experiment [6] it was 7.22 µM. Also, the GI50 in experiment [7] is 5.23 µM. In addition, the TGI in experiment [1] amounted to 18.8 µM; in experiment [2], 12.4 µM; in experiment [3], 6.22 µM; in experiment [4], 28.2 µM; in experiment [5], 2.36 µM; in experiment [6], 18.3 µM. In experiment [7], the TGI amounted to 11.3 µM.

As for `CCOC(=O)C1=C(c2ccccc2)N(Cc2ccccc2)C2(O)C=CC(=O)C3C(=O)N(c4ccccc4)C(=O)C132` (stereo not given), the GI50 was 3.29 µM in experiment [8]; 3.08 µM in experiment [2]; 2.1 µM in experiment [3]; 2.98 µM in experiment [4]; 2.11 µM in experiment [5]; 2.82 µM in experiment [6]. Also, in experiment [7], the GI50 was 1.77 µM. Besides, the TGI in experiment [8] was determined as 10.7 µM; in experiment [2] it was 9.71 µM; in experiment [3], 4.62 µM; in experiment [4], 17 µM; in experiment [5], 4.33 µM; in experiment [6], 8.06 µM. For the same compound, the TGI in experiment [7] is 3.26 µM.

In the case of `CCCCCCN1C(=O)CN=C1Nc1ccc2cc3ccc(NC4=NCC(=O)N4CCCCCC)cc3nc2c1`, the GI50 was 11.6 µM in experiment [8]; 1.79 µM in experiment [1]; 2.15 µM in experiment [3]; 3.32 µM in experiment [4]; 1.36 µM in experiment [5]; 3.34 µM in experiment [6]. Moreover, the GI50 in experiment [7] was 1.58 µM. Besides, the TGI in experiment [8] came to 28.9 µM; in experiment [1], 3.91 µM; in experiment [3] it was 12.4 µM; in experiment [4], 15 µM; in experiment [5], 3.08 µM; in experiment [6], 9.74 µM. Besides, the TGI in experiment [7] was determined as 3.04 µM.

In the case of `CCOc1cccnc1/C=N/NC(N)=S`, the GI50 in experiment [8] was 5.01 µM; in experiment [1], 3.05 µM; in experiment [2], 3.51 µM; in experiment [3] it was 3.84 µM; in experiment [4] it was 3.99 µM; in experiment [5], 4.44 µM. For the same compound, the GI50 in experiment [6] was 3.99 µM. Moreover, the TGI in experiment [8], in experiment [1], in experiment [2], in experiment [3], in experiment [4] and in experiment [5] was above 100 µM throughout. For the same compound, the TGI in experiment [6] was determined as 39.1 µM.

As for `CCC1(N2C(=O)c3c(F)c(F)c(F)c(F)c3C2=O)C(=O)NC(=O)N(c2ccccc2)C1=O` (stereo not given), the GI50 in experiment [8] is 10.6 µM; in experiment [1] it was 3.13 µM; in experiment [2] it was 1.95 µM; in experiment [3], 1.9 µM; in experiment [4], 7.69 µM; in experiment [5], 1.67 µM. For the same compound, the GI50 in experiment [6] was 5.06 µM. For the same compound, the TGI in experiment [8] came to 31 µM; in experiment [1], 26.2 µM; in experiment [2] it was 4 µM; in experiment [3], 5.09 µM; in experiment [4] it was 27.1 µM; in experiment [5], 4.1 µM. The TGI in experiment [6] turned out to be 17.1 µM.

As for `O=C1/C(=C/c2ccccc2)CN(C(=O)OCC(Cl)(Cl)Cl)C/C1=C\c1ccccc1`, the results for the TGI in experiment [8], in experiment [3] and in experiment [6] were 24.6 µM, 13.6 µM and 4.48 µM, respectively.

For `O=C(NO)C(O)C(O)C(O)C(O)CO` (stereo not given), the GI50 is above 100 µM in experiment [8]; > 100 µM and 44.7 µM in experiment [1]; 31.3 µM in experiment [2]; above 100 µM in experiment [4]; above 100 µM in experiment [5]; above 100 µM in experiment [6]. The GI50 in experiment [7] is above 100 µM. Further, the TGI in experiment [8], in experiment [1], in experiment [2], in experiment [4], in experiment [5] and in experiment [6] was above 100 µM throughout. This compound also gave a TGI in experiment [7] above 100 µM.

In the case of `COc1ccc(-n2nc(C)c3c2N(C)C2(C)C[C@@H]4C3(C)[C@@H]3CC4(C2)N(C)c2c(c(C)nn2-c2ccc(OC)cc2)[C@H]3C)cc1` (stereo not given in full), the GI50 in experiment [8] was 2.53 µM; in experiment [1], 0.891 µM; in experiment [4], 8.03 µM; in experiment [5], 7.14 µM; in experiment [7] it was 9.65 µM. Also, the TGI in experiment [8] was 9.54 µM; in experiment [1], 6.94 µM; in experiment [4], above 100 µM; in experiment [5], above 100 µM; in experiment [7], above 100 µM.

Regarding `O=C(CN=Cc1cccs1)CSC(c1ccccc1)c1ccccc1`, the GI50 is 16.3 µM in experiment [8]; 24.9 µM in experiment [2]; 30.5 µM in experiment [3]; 24.9 µM in experiment [4]; 17.6 µM in experiment [5]; 22.1 µM in experiment [6]. In addition, the GI50 in experiment [7] was 29.3 µM. In addition, the TGI in experiment [8] was 58.2 µM; in experiment [2] it was 67.1 µM; in experiment [3], above 100 µM; in experiment [4], 88.8 µM; in experiment [5], 48.1 µM; in experiment [6], 48 µM. Further, the TGI in experiment [7] was found to be 93.3 µM.

For `O=C1/C(=C/c2ccccc2)CN(C(=O)Oc2ccc([N+](=O)[O-])cc2)C/C1=C\c1ccccc1`, the figures for the GI50 in experiment [1], in experiment [6] and in experiment [7] were 2.15 µM, 6.29 µM and 1.33 µM, respectively. The TGI was 8.54 µM and 5.13 µM in experiment [1]; 5.58 µM in experiment [5]; 8.79 µM in experiment [6]; 5.99 µM and 3.3 µM in experiment [7].

In the case of `C=C(C)[C@@H]1CCC[C@]2(C(=O)O)CC[C@]3(C)[C@@H](CC[C@@H]4[C@@]5(C)C/C(=C/c6ccncc6)C(=O)C(C)(C)[C@@H]5CC[C@]43C)[C@@H]12`, the GI50 was 4.91 µM in experiment [8]; 2.74 µM in experiment [1]; 3.34 µM in experiment [2]; 3.99 µM in experiment [4]; 1.89 µM in experiment [5]; 3 µM in experiment [6]. Besides, the GI50 in experiment [7] was 1.94 µM. In addition, the TGI in experiment [8] was 34.3 µM; in experiment [1], 9.14 µM; in experiment [2] it was 13.9 µM; in experiment [4], above 100 µM; in experiment [5], 3.85 µM; in experiment [6] it was 13.8 µM. Besides, in experiment [7], the TGI was 4.29 µM.

For the compound `Cc1cccc(N2C(=O)/C(=C/c3ccc(N(CCC#N)CCC#N)cc3C)N=C2c2cc([N+](=O)[O-])ccc2Cl)c1`, the TGI in experiment [8], in experiment [1], in experiment [2], in experiment [3], in experiment [5] and in experiment [6] was above 100 µM throughout. The TGI in experiment [7] was above 100 µM.

Take `COc1ccc(N(Cc2cc(OC)c(OC)c(OC)c2)C2OC(=O)c3ccccc32)cc1` (stereo not given): the GI50 was 1.23 µM in experiment [8]; 0.286 µM in experiment [1]; 0.532 µM in experiment [2]; 0.368 µM in experiment [5]; 1.57 µM in experiment [7]. For the same compound, the TGI in experiment [8] was above 100 µM; in experiment [1], 3.11 µM; in experiment [2], above 100 µM; in experiment [5] it was 1.98 µM; in experiment [7], above 28.5 µM.

Consider `CCNC(=O)Oc1ccc(/C(=C(\C)c2ccc(Cl)cc2)c2ccc(OCCN3CCCCC3)cc2)cc1`, for which the GI50 was 8.52 µM in experiment [8]; 14.1 µM in experiment [1]; 2.67 µM in experiment [3]; 5.59 µM in experiment [4]; 3.52 µM in experiment [5]; 2.38 µM in experiment [6]. Moreover, the GI50 in experiment [7] is 3.53 µM. In addition, the TGI was found to be 21.3 µM in experiment [8]; 29.9 µM in experiment [1]; 18.6 µM in experiment [3]; 22.7 µM in experiment [4]; 13.4 µM in experiment [5]; 5.12 µM in experiment [6]. In addition, in experiment [7], the TGI was 13.4 µM.

For the compound `Cc1csc(Nc2nc(-c3cccc(Cl)c3)nc(C(Cl)(Cl)Cl)n2)n1`, the GI50 in experiment [8] was 8.69 µM; in experiment [1] it was above 33.3 µM; in experiment [2], 3.07 µM; in experiment [4], 4.15 µM; in experiment [5], 1.06 µM; in experiment [6] it was 3.53 µM. Besides, in experiment [7], the GI50 is 1.22 µM. The TGI is above 33.3 µM in experiment [8]; above 33.3 µM in experiment [1]; above 33.3 µM in experiment [2]; above 33.3 µM in experiment [4]; 3.53 µM in experiment [5]; 28 µM in experiment [6]. The same compound registered a TGI in experiment [7] of 4.71 µM.

With `CCN1CC2(C)CC[C@@H](OC)C34[C@@H]2[C@H](OC(C)=O)C2(OCO[C@@]25C[C@H](OC)C2C[C@]3(O)[C@@H]5[C@H]2O)[C@H]14`, the TGI in experiment [1], in experiment [2], in experiment [3], in experiment [5], in experiment [6] and in experiment [7] was above 100 µM each time.

Regarding `COc1cc(CC(=O)c2ccc3c(c2)OCO3)cc(OC)c1OC`, the TGI in experiment [8], in experiment [1], in experiment [2], in experiment [3], in experiment [5] and in experiment [6] was above 100 µM throughout. The TGI in experiment [7] is above 100 µM.

One may read the GI50 as the concentration at which growth is held to half of that of the control. In general, TGI refers to the concentration at which net growth stops. High values mean less potent growth arrest, low ones more potent growth arrest.
